Data published in patent US12404252B2, “Salt of 2-amino-2-(2-(1-decyl-1H-1,2,3-triazol-4-yl)ethyl)propane-1,3-diol, and pharmaceutical composition containing same” (NEXTGEN BIOSCIENCE CO., LTD, priority 2021, dated 2025).
≈ marks a conversion by molar mass, not a printed value. Where “and” joins values, the source holds several entries; their conditions need not be identical. Equal entries are not always repeated.

Experiments:
[1] = test system: T cells, CD4 T cells, and CD8 T cells; test: Inhibitory effect against mouse immune cells (FACS after oral administration); format: in vivo; settings: mice, oral 3 mg/kg
Description: In order to examine whether Compound 1, which acts on the S1P receptor, also is effective in reducing lymphocytes, the effect of Compound 1 on immune cells was evaluated. After oral administration of Compound 1 to mice at 3 mg/kg/day, changes in lymphocytes in peripheral blood (PB) and bone marrow (BM) were classified into T cells, CD4 T cells, and CD8 T cells. FACS analysis was performed 0, 4, 8, 12, 24, and 36 hours after administration of the test substance. Cell number was measured and expressed as a percentage relative to that at time 0 (% of control).

[2] = Effect on cardiovascular system in beagle dogs (telemetry); format: in vivo; settings: oral 12.5, 25, and 50 mg/kg
Description: Compound 1a was orally administered to four non-anesthetized and unrestrained male beagle dogs implanted with remote transmitters. Next, the heart rates of the four beagle dogs were measured to evaluate the effect of Compound 1a on the cardiovascular system, and whether abnormal symptoms occurred was visually checked.
In this experiment, the test substance was administered to each of the four beagle dogs in four steps. In the first administration step (0 mg/kg of Compound 1a), 0.5% MC aqueous solution as control vehicle was administered, and in the second administration step, 12.5 mg/kg of Compound 1a was administered. In the third administration step, 25 mg/kg of Compound 1a was administered, and in the fourth administration step, 50 mg/kg of Compound 1a was administered. The first to fourth administrations were performed at one-week intervals. Additionally, 0 hour before administration of the test substance, and 0.5 hours, 1 hour, 2 hours, 3 hours, 4 hours, 6 hours, 8 hours, 12 hours, and 24 hours after administration of the test substance, the heart rates of the beagle dogs were measured.

[3] = test system: T cells, CD4 T cells, and CD8 T cells; test: Inhibitory effect against rat immune cells (FACS after oral administration); format: in vivo; settings: SD rats
Description: In order to evaluate the effect of Compound 1a on rat immune cells, Compound 1a was administered orally to SD rats at 10 mg/kg/day, and then lymphocytes in peripheral blood (PB) and bone marrow (BM) were classified into T cells, CD4 T cells, and CD8 T cells. FACS analysis was performed 0, 4, 8, 12, 24, 36, and 48 hours after administration of the test substance. Cell number was measured and expressed as a percentage relative to that at time 0 (% of control). The numbers of T cells, CD4 T cells, and CD8 T cells were measured and expressed as percentages relative to those at time 0 (% of control).

[4] = Solubility in aqueous media (HPLC); format: physicochemical; settings: for solubility at 24 h: thermodynamic from solid
Description: The solubility of Compound 1a prepared in Example 1 was evaluated in several different media, including pH 1.2 hydrochloric acid buffer, pH 3.0 citrate buffer, pH 4.7 acetate buffer, pH 6.8 phosphate buffer, simulated gastric fluid, fasted-state simulated intestinal fluid, fed-state simulated intestinal fluid, and water. About 2.17 mg of sample (based on the free base of Compound 1) for each medium was taken into a 2-mL transparent glass vial and […] of medium was added (constituents of the salt were considered Compound 1: counterion=1:0.5; target concentration: 2 mg/mL). The mixture was stirred using a magnetic stirrer at 250 RPM for 24 hours at 25° C. Next, the pH and appearance of the mixture were recorded and the mixture was filtered through a MultiScreen® HTS-HV 96-well plate (manufactured by Merck; 0.45-μm hydrophilic, low-protein-binding Durapore® membrane). Solubility was determined using HPLC, and a calibration curve was created by injecting a known concentration of Compound 1a. The filtered sample was injected (diluted appropriately as necessary) and the concentration of Compound 1a (mg/mL) in the filtrate was calculated from the calibration curve (taking salt coefficient into account). The analysis results are as follows.

[5] = Standard stock solution stability, 60° C./75±5% RH; format: physicochemical; settings: 60° C./75% RH, Initial
Description: The stability of the crystalline compound was under 60° C./75±5% RH conditions, and the purity thereof was examined by HPLC method. The experimental conditions used in the stability test for Compound 1a and the test results are as follows.
60° C./75±5% RH: Conditions in which the vial was open and upright.
A required amount (˜1 mg) of solid material was dissolved in 1 mL of a diluent (1:1 methanol/water), and the prepared solution was analyzed by HPLC.

[6] = Oxidation stability test (30% H2O2); format: physicochemical

## CCCCCCCCCCn1cc(CCC(N)(CO)CO)nn1 [Compound 1a, 2-amino-2-(2-(1-decyl-1H-1,2,3-triazol-4-yl)ethyl) propane-1,3-diol]
[1]; 4 hours
  CD4 T cells in peripheral blood, relative to time 0 (% of control): 16.4% and 17.6%
  CD8 T cells in peripheral blood, relative to time 0 (% of control): 5.9% and 9.3%
  T cells in peripheral blood, relative to time 0 (% of control): 40.6% and 41.6%
  T-cell distribution in bone marrow (BM), % of control: 135% and 120%
[1]; 24 hours
  T-cell distribution in bone marrow (BM), % of control: 131% and 118%
[2]
  general symptoms (visual observation): no abnormal symptoms were observed
[2]; up to 24 hours
  heart rate: no change in the heart rate
[3]
  change of cell number in bone marrow (BM): no change or a tendency to increase
[3]; dose-dependent, doses of the three values not given
  inhibitory effect on number of T cells in peripheral blood (PB): 70% and 80% and 87%
[4]; 0.5% Methylcellulose, target 2 mg/mL
  Visual observation: Clear solution
[4]; 25 °C, all of the aqueous media except phosphate buffer (pH 6.8)
  solubility at 24 h: > 2000 µg/mL
[4]; FaSSIF (pH 6.5), target 2 mg/mL
  Visual observation: Clear solution
[4]; FeSSIF (pH 5.8), target 2 mg/mL
  Visual observation: Clear solution
[4]; SGF (pH 2.0), target 2 mg/mL
  Visual observation: Clear solution
[4]; Water, target 2 mg/mL
  Visual observation: Clear solution
[4]; aqueous buffer, pH 3.0 Citrate buffer, 25° C., 24 hours, final pH 3.42
  solubility at 24 h: > 2000 µg/mL
[4]; aqueous buffer, pH 4.7 Acetate buffer, 25° C., 24 hours, final pH 5.11
  solubility at 24 h: > 2000 µg/mL
[4]; aqueous buffer, pH 6.8 Phosphate buffer, 25° C., 24 hours, final pH 6.94
  solubility at 24 h: 306 µg/mL (≈ 0.937 mM)
[4]; aqueous with cosolvent or surfactant or cyclodextrin, 0.5% Methylcellulose, 25° C., 24 hours, final pH 6.04
  solubility at 24 h: > 2000 µg/mL
[4]; pH 1.2 HCl buffer, target 2 mg/mL
  Visual observation: Clear solution
[4]; pH 3.0 Citrate buffer, target 2 mg/mL
  Visual observation: Clear solution
[4]; pH 4.7 Acetate buffer, target 2 mg/mL
  Visual observation: Clear solution
[4]; pH 6.8 Phosphate buffer, target 2 mg/mL
  Visual observation: White suspension
[4]; simulated gastric fluid, SGF (pH 2.0), 25° C., 24 hours, final pH 3.02
  solubility at 24 h: > 2000 µg/mL
[4]; simulated gastric fluid, pH 1.2 HCl buffer, 25° C., 24 hours, target 2 mg/mL, final pH 1.75
  solubility at 24 h: > 2000 µg/mL
[4]; FaSSIF (pH 6.5), 25° C., 24 hours, final pH 6.60
  solubility at 24 h: > 2000 µg/mL
[4]; FeSSIF (pH 5.8), 25° C., 24 hours, final pH 5.97
  solubility at 24 h: > 2000 µg/mL
[4]; Water, 25° C., 24 hours, final pH 6.04
  solubility at 24 h: > 2000 µg/mL
[5]
  Purity %: 99.11%
[6]; 30% H2O2 25° C. for 3 hours
  Purity %: 99.50%
[6]; 30% H2O2 25° C. for 24 hours
  Purity %: 94.30%
